Like-named read-outs stand apart in the source and are kept apart here.
Legend:
human topoisomerase I = biological target: T1, human topoisomerase I (Homo sapiens, UniProt P11387); conditions: relative topoisomerase I inhibition levels, previously determined, six levels (0 - 5, +++++ = 5); cited from earlier work
T1 sequence (P11387 1-765): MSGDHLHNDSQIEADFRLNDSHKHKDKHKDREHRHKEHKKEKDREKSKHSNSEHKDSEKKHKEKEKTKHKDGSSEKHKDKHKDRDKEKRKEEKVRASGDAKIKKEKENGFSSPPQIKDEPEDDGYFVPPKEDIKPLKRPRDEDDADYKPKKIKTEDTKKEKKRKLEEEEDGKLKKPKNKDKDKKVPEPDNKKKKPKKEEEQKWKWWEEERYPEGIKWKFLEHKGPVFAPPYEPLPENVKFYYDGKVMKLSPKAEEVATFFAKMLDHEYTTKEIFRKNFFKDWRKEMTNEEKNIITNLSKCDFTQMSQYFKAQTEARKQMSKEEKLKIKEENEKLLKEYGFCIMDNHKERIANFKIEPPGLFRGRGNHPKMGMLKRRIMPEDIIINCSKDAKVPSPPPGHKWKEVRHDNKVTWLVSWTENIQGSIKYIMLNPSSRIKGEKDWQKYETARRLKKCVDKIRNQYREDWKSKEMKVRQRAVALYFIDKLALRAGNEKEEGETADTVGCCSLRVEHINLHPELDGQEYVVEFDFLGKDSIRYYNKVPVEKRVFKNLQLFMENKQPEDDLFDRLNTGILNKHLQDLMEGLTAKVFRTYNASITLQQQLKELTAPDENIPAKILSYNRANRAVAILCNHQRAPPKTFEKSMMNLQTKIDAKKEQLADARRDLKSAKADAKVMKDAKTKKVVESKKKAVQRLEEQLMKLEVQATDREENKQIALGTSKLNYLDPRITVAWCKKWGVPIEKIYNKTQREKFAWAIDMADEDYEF

NCI-60 cancer cell lines = test: NCI-60 cancer cell line drug screen (GI50, MGM); format: cell-based, human; conditions: Homo sapiens; for GI50: read-out: Antiproliferative Activities [GI50 (μM)]
Method: Cancer cells were incubated with the test compounds at five concentrations ranging from 100 μM to 10 nM for 48 h. […] The approximate average of GI50 values across the entire panel of NCI-60 cancer cell lines for each compound was recorded as the MGM value.

Which “Top1 Inhibiton” value (human topoisomerase I) does the source give for `CNCCCn1c2c(c3ccc([N+](=O)[O-])cc3c1=O)C(=O)c1cc(OC)cnc1-2` [Compound 10] here?
The value was “+++ (strong inhibition, +++, MYC expression inhibited at 0.5 to 1.0 μM)”.

And the GI50 (NCI-60 cancer cell lines; 786-0, Renal Cancer, 786-0)?
Its GI50 is 0.04 µM.

What about the GI50 (NCI-60 cancer cell lines; A498, Renal Cancer, A498) of the same compound?
Its GI50 is 0.03 µM.

What about the GI50 (NCI-60 cancer cell lines; A549, Non-Small Cell Lung Cancer, A549/ATCC) of the same compound?
The GI50 was 0.07 µM.

What about the GI50 (NCI-60 cancer cell lines; ACHN, Renal Cancer, ACHN) of the same compound?
The GI50 was 0.04 µM.

What about the GI50 (NCI-60 cancer cell lines; BT-549, Breast Cancer, BT-549) of the same compound?
Its GI50 is 0.37 µM.

What about the GI50 (NCI-60 cancer cell lines; CAKI-1, Renal Cancer, CAKI-1) of the same compound?
Its GI50 is 0.03 µM.

What about the GI50 (NCI-60 cancer cell lines; CCRF-CEM, Leukemia, CCRF-CEM) of the same compound?
The GI50 was 0.04 µM.

And the GI50 (NCI-60 cancer cell lines; COLO 205, Colon Cancer, COLO 205)?
The GI50 was 0.06 µM.

What about the GI50 (NCI-60 cancer cell lines; DU-145, Prostate Cancer, DU-145) of the same compound?
Its GI50 is 0.05 µM.

And the GI50 (NCI-60 cancer cell lines; EKVX, Non-Small Cell Lung Cancer, EKVX)?
Its GI50 is 0.27 µM.

What about the GI50 (NCI-60 cancer cell lines; HCC 2998, Colon Cancer, HCC-2998) of the same compound?
The GI50 was 0.2 µM.

And the GI50 (NCI-60 cancer cell lines; HCT-15, Colon Cancer, HCT-15)?
The GI50 was 0.12 µM.

And the GI50 (NCI-60 cancer cell lines; HCT-116, Colon Cancer, HCT-116)?
The GI50 was 0.03 µM.

And the GI50 (NCI-60 cancer cell lines; HL-60, Leukemia, HL-60(TB))?
The GI50 was 0.04 µM.

And the GI50 (NCI-60 cancer cell lines; HOP-92, Non-Small Cell Lung Cancer, HOP-92)?
Its GI50 is 0.24 µM.

What about the GI50 (NCI-60 cancer cell lines; HT-29, Colon Cancer, HT29) of the same compound?
Its GI50 is 0.06 µM.

What about the GI50 (NCI-60 cancer cell lines; Hs-578T, Breast Cancer, HS 578T) of the same compound?
Its GI50 is 1.17 µM.

And the GI50 (NCI-60 cancer cell lines; IGROV-1, Ovarian Cancer, IGROV1)?
The GI50 was 0.21 µM.

What about the GI50 (NCI-60 cancer cell lines; K562, Leukemia, K-562) of the same compound?
Its GI50 is 0.04 µM.

What about the GI50 (NCI-60 cancer cell lines; KM12, Colon Cancer, KM12) of the same compound?
The GI50 was 0.16 µM.

What about the GI50 (NCI-60 cancer cell lines; LOX IMVI, Melanoma, LOX IMVI) of the same compound?
The GI50 was 0.03 µM.

And the GI50 (NCI-60 cancer cell lines; Leukemia, SR)?
The GI50 was 0.01 µM.

What about the GI50 (NCI-60 cancer cell lines; MCF7, Breast Cancer, MCF7) of the same compound?
Its GI50 is 0.01 µM.

What about the GI50 (NCI-60 cancer cell lines; MDA-MB-231, Breast Cancer, MDA-MB-231/ATCC) of the same compound?
Its GI50 is 0.27 µM.

And the GI50 (NCI-60 cancer cell lines; MDA-MB-435, Melanoma, MDA-MB-435)?
Its GI50 is 0.15 µM.

What about the GI50 (NCI-60 cancer cell lines; MDA-MB-468, Breast Cancer, MDA-MB-468) of the same compound?
The GI50 was 0.03 µM.

What about the GI50 (NCI-60 cancer cell lines; MOLT-4, Leukemia, MOLT-4) of the same compound?
Its GI50 is 0.03 µM.

And the GI50 (NCI-60 cancer cell lines; Malme-3M, Melanoma, MALME-3M)?
The GI50 was 0.18 µM.

And the GI50 (NCI-60 cancer cell lines; Melanoma, M14)?
Its GI50 is 0.04 µM.

And the GI50 (NCI-60 cancer cell lines; NCI-H23, Non-Small Cell Lung Cancer, NCI-H23)?
Its GI50 is 0.04 µM.

And the GI50 (NCI-60 cancer cell lines; NCI-H226, Non-Small Cell Lung Cancer, NCI-H226)?
Its GI50 is 0.09 µM.

And the GI50 (NCI-60 cancer cell lines; NCI-H322M, Non-Small Cell Lung Cancer, NCI-H322M)?
Its GI50 is 0.16 µM.

And the GI50 (NCI-60 cancer cell lines; NCI-H460, Non-Small Cell Lung Cancer, NCI-H460)?
The GI50 was 0.02 µM.

And the GI50 (NCI-60 cancer cell lines; NCI-H522, Non-Small Cell Lung Cancer, NCI-H522)?
The GI50 was 0.08 µM.

What about the GI50 (NCI-60 cancer cell lines; OVCAR-3, Ovarian Cancer, OVCAR-3) of the same compound?
Its GI50 is 0.17 µM.

What about the GI50 (NCI-60 cancer cell lines; OVCAR-4, Ovarian Cancer, OVCAR-4) of the same compound?
Its GI50 is 0.17 µM.

And the GI50 (NCI-60 cancer cell lines; OVCAR-5, Ovarian Cancer, OVCAR-5)?
Its GI50 is 0.14 µM.

What about the GI50 (NCI-60 cancer cell lines; OVCAR-8, Ovarian Cancer, OVCAR-8) of the same compound?
Its GI50 is 0.09 µM.

And the GI50 (NCI-60 cancer cell lines; Ovarian Cancer, NCl/ADR-RES)?
The GI50 was 0.06 µM.

And the GI50 (NCI-60 cancer cell lines; Prostate Cancer, PC-3)?
Its GI50 is 0.13 µM.

And the GI50 (NCI-60 cancer cell lines; RPMI-8226, Leukemia, RPMI-8226)?
The GI50 was 0.08 µM.

And the GI50 (NCI-60 cancer cell lines; RXF 393, Renal Cancer, RXF 393)?
The GI50 was 0.07 µM.

And the GI50 (NCI-60 cancer cell lines; Renal Cancer, U0-31)?
The GI50 was 0.03 µM.

And the GI50 (NCI-60 cancer cell lines; SF-268, CNS Cancer, SF-268)?
The GI50 was 0.07 µM.

What about the GI50 (NCI-60 cancer cell lines; SF-295, CNS Cancer, SF-295) of the same compound?
Its GI50 is 0.03 µM.

And the GI50 (NCI-60 cancer cell lines; SF-539, CNS Cancer, SF-539)?
Its GI50 is 0.05 µM.

What about the GI50 (NCI-60 cancer cell lines; SK-MEL-2, Melanoma, SK-MEL-2) of the same compound?
The GI50 was 0.35 µM.

What about the GI50 (NCI-60 cancer cell lines; SK-MEL-5, Melanoma, SK-MEL-5) of the same compound?
The GI50 was 0.11 µM.

And the GI50 (NCI-60 cancer cell lines; SK-MEL-28, Melanoma, SK-MEL-28)?
The GI50 was 0.39 µM.

And the GI50 (NCI-60 cancer cell lines; SK-OV-3, Ovarian Cancer, SK-OV-3)?
Its GI50 is 0.06 µM.

What about the GI50 (NCI-60 cancer cell lines; SN12C, Renal Cancer, SN12C) of the same compound?
The GI50 was 0.05 µM.

And the GI50 (NCI-60 cancer cell lines; SNB-19, CNS Cancer, SNB-19)?
Its GI50 is 0.04 µM.

And the GI50 (NCI-60 cancer cell lines; SNB-75, CNS Cancer, SNB-75)?
Its GI50 is 0.13 µM.

What about the GI50 (NCI-60 cancer cell lines; SW-620, Colon Cancer, SW-620) of the same compound?
The GI50 was 0.03 µM.

What about the GI50 (NCI-60 cancer cell lines; T47D, Breast Cancer, T-47D) of the same compound?
Its GI50 is 0.03 µM.

What about the GI50 (NCI-60 cancer cell lines; TK-10, Renal Cancer, TK-10) of the same compound?
Its GI50 is 0.32 µM.

What about the GI50 (NCI-60 cancer cell lines; U-251, CNS Cancer, U251) of the same compound?
Its GI50 is 0.04 µM.

What about the GI50 (NCI-60 cancer cell lines; UACC-257, Melanoma, UACC-257) of the same compound?
Its GI50 is 0.18 µM.

What about the mean GI50 across NCI-60 panel (MGM) (NCI-60 cancer cell lines; average of GI50 values across the entire panel of NCI-60 cancer cell lines) of the same compound?
The mean GI50 across NCI-60 panel (MGM) was 74 nM.
